Source: patent publication US12459921B2, “Isoindoline compound, preparation method, pharmaceutical composition and use thereof” (SHANGHAI INSTITUTE OF MATERIA MEDICA, CHINESE ACADEMY OF …, priority 2018, dated 2025)

Each compound was assayed on MM.1S cells (assay: Inhibitory effect on the proliferation of MM.1S, MTS cell viability test). Details: Homo sapiens, MM1.S, 168 h, multiple myeloma MM.1S cells, 7 days incubation, read-out: Tumor cell inhibitory activity.
Format: cell-based
Method: Method of tumor cell proliferation inhibition test: the inventors tested all the example compounds on hematologic tumor cells, multiple myeloma MMTs cell line and acute leukemia cell MV-4-11 cell line of some examples. The activity test method and results are as follows.
1. The Compound's Inhibitory Effect on the Proliferation of MM.1S, MTS Cell Viability Test:
MM.1S cells were cultured and collected with 1640 plus 10% fetal bovine serum. The cell concentration was diluted according to 7 days, and 180 ul cell suspension was added to each well of the 96-well cell plate to 20,000 cells. 20 ul of DMSO with a final concentration of 0.2% was added to the control wells. The compound was 5-fold diluted—from the 10 mM stock solution, and 20 ul was also added to each compound cell well (the final concentration of DMSO was 0.2%). The cells were placed in a 37° C., 5% CO2 incubator to incubate for 7 days. After the reaction solution was prepared according to the MTS kit (Promega, G5430), 20 μL was added to each well and incubated in a 37° C., 5% CO2 incubator for 3-4 h. Absorbance value at 490 nm was read with a microtiter plate, and 690 nm absorbance value was used as the background value. OD490-OD690 was used as the final initial data. The formula for calculating the inhibition rate of the compound is: inhibition rate=(ODDMSO-ODcompound)/(ODDMSO-Oblank)×100%. The compound's proliferation inhibition IC50 was fitted by Graph Pad Prism 5.0. The experiment was repeated three times, and the average and standard deviation was calculated according to the three parallel experiments.
Cell viability test results: **** represents cell viability IC50>20 μM, […] represents cell viability 1 μM<IC50<20 μM, ** represents cell viability 100 nM<IC50<1 μM, * represents cell viability IC50<100 nM.
For `O=C1CCC(N2Cc3c(OCCCC(=O)N4CCN(c5cccc(Cl)c5Cl)CC4)cccc3C2=O)C(=O)N1` (centres unmarked) [Example 29, 3-(4-(4-(4-(2,3-dichlorophenyl)piperazine-1-)-4-oxobutoxy)-1-oxoisoindoline-2-)piperidine-2,6-dione], the IC50 was less than 100 nM. In the case of `O=C1CCC(N2Cc3c(OCCCCC(=O)N4CCN(c5ccccc5)CC4)cccc3C2=O)C(=O)N1` (centres unmarked) [Example 30], the IC50 is reported as less than 100 nM. In the case of `O=C1CCC(N2Cc3c(OCCCCC(=O)N4CCN(c5cccc(Cl)c5Cl)CC4)cccc3C2=O)C(=O)N1` (centres unmarked) [Example 31, 3-(4-((5-(4-(2,3-dichlorophenyl)piperazine-1-)-5-oxopentyl)oxy)-1-oxopentyl-2-)piperidine-2,6-dione], the IC50 is reported as less than 100 nM. `O=C1CCC(N2Cc3c(OCCNC(=O)N4CCN(c5cccc(Cl)c5Cl)CC4)cccc3C2=O)C(=O)N1` (centres unmarked) [Example 32, 4-(2,3-dichlorophenyl)-N-(2-((2-(2,6-dioxopiperidine-3-)-1-oxoisoindoline-4-)oxy)ethyl)piperazine-1-carboxamide] showed an IC50 of 100 to 1000 nM. In the case of `O=C1CCC(N2Cc3c(OCCCCNC(=O)N4CCN(c5cccc(Cl)c5Cl)CC4)cccc3C2=O)C(=O)N1` (centres unmarked) [Example 33, 4-(2,3-dichlorophenyl)-N-(4-((2-(2,6-dioxopiperidine-3-)-1-oxoisoindoline-4-)oxy)butyl)piperazine-1-carboxamide], the IC50 is reported as less than 100 nM. For `O=C1CCC(N2Cc3c(OCCCNC(=O)N4CCN(c5cccc(Cl)c5Cl)CC4)cccc3C2=O)C(=O)N1` (centres unmarked) [Example 34], the IC50 was 1000 to 20000 nM. With `O=C1CCC(N2Cc3c(CCCCCCN4CCN(c5cccc(Cl)c5Cl)CC4)cccc3C2=O)C(=O)N1` (centres unmarked) [Example 35, 3-(4-(6-(4-(2,3-dichlorophenyl)piperazine-1-)hexyl)-1-oxoisoindoline-2-)piperidine-2,6-dione] the IC50 was less than 100 nM. Work on `N#Cc1ccc(N2CCN(CCCCc3cccc4c3CN(C3CCC(=O)NC3=O)C4=O)CC2)cc1` (centres unmarked) [Example 36, 4-(4-(4-(2-(2,6-dioxopiperidine-3-)-1-oxoisoindoline-4-)butyl)piperazine-1-)benzonitrile] yielded an IC50 of less than 100 nM. In the case of `O=C1CCC(N2Cc3c(CCCCN4CCN(c5cccc(Cl)c5)CC4)cccc3C2=O)C(=O)N1` (centres unmarked) [Example 37, 3-(4-(4-(4-(3-chlorophenyl)piperazine-1-)butyl)-1-oxoisoindoline-2-)piperidine-2,6-dione], the IC50 is reported as less than 100 nM. For `N#Cc1ccccc1N1CCN(CCCCc2cccc3c2CN(C2CCC(=O)NC2=O)C3=O)CC1` (centres unmarked) [Example 38, 2-(4-(4-(2-(2,6-dioxopiperidine-3-)-1-oxoisoindoline-4-)butyl)piperazine-1-)benzonitrile], the IC50 was less than 100 nM. For `O=C1CCC(N2Cc3c(CCCCN4CCN(c5ccc(F)cc5)CC4)cccc3C2=O)C(=O)N1` (centres unmarked) [Example 39, 3-(4-(4-(4-(4-fluorophenyl)piperazine-1-)butyl)-1-oxoisoindoline-2-)piperidine-2,6-dione], the IC50 was less than 100 nM. With `Cc1cccc(N2CCN(CCCCc3cccc4c3CN(C3CCC(=O)NC3=O)C4=O)CC2)c1` (centres unmarked) [Example 40, 3-(1-oxo-4-(4-(4-(3-methylphenyl)piperazine-1-)butyl)isoindoline-2-)piperidine-2,6-dione] the IC50 was less than 100 nM. In the case of `O=C1CCC(N2Cc3c(CCCCN4CCN(c5ccc(Cl)cc5)CC4)cccc3C2=O)C(=O)N1` (centres unmarked) [Example 41, 3-(4-(4-(4-(4-chlorophenyl)piperazine-1-)butyl)-1-oxoisoindoline-2-)piperidine-2,6-dione], the IC50 is reported as less than 100 nM. `O=C1CCC(N2Cc3c(CCCCN4CCN(c5ccc([N+](=O)[O-])cc5)CC4)cccc3C2=O)C(=O)N1` (centres unmarked) [Example 42, 3-(4-(4-(4-(4-nitrophenyl)piperazine-1-)butyl)-1-oxoisoindoline-2-)piperidine-2,6-dione] was tested, and the IC50 was less than 100 nM. Compound `O=C1CCC(N2Cc3c(CCCCN4CCN(c5ccc(F)cc5F)CC4)cccc3C2=O)C(=O)N1` (centres unmarked) [Example 43, 3-(4-(4-(4-(2,4-difluorophenyl)piperazine-1-)butyl)-1-oxoisoindoline-2-)piperidine-2,6-dione] has an IC50 of less than 100 nM. `O=C1CCC(N2Cc3c(CCCCN4CCN(c5ccc(Cl)c(Cl)c5)CC4)cccc3C2=O)C(=O)N1` (centres unmarked) [Example 44, 3-(4-(4-(4-(3,4-dichlorophenyl)piperazine-1-)butyl)-1-oxoisoindoline-2-)piperidine-2,6-dione] showed an IC50 of less than 100 nM. For `O=C1CCC(N2Cc3c(CCCCN4CCN(c5ccc(C(F)(F)F)cc5)CC4)cccc3C2=O)C(=O)N1` (centres unmarked) [Example 45, 3-(1-oxo-4-(4-(4-(4-trifluoromethylphenyl)piperazine-1-)butyl)isoindoline-2-)piperidine-2,6-dione], the IC50 was less than 100 nM. For `COc1ccc(N2CCN(CCCCc3cccc4c3CN(C3CCC(=O)NC3=O)C4=O)CC2)cc1` (centres unmarked) [Example 46, 3-(4-(4-(4-(4-methoxyphenyl)piperazine-1-)butyl)-1-oxoisoindoline-2-)piperidine-2,6-dione], the IC50 was 100 to 1000 nM. `O=C1CCC(N2C(=O)c3cccc(OCCCCOc4ccnc5ccccc45)c3C2=O)C(=O)N1` (centres unmarked) [Example 47, 2-(2,6-dioxopiperidine-3-)-4-(4-(quinoline-4-oxy)butoxy)isoindoline-1,3-dione] gave an IC50 of less than 100 nM. `O=C1CCC(N2Cc3c(CCCCN4CCN(c5c(Cl)cccc5Cl)CC4)cccc3C2=O)C(=O)N1` (centres unmarked) [Example 48, 3-(4-(4-(4-(2,6-dichlorophenyl)piperazine-1-)butyl)-1-oxoisoindoline-2-)piperidine-2,6-dione] gave an IC50 of less than 100 nM. For `N#CC1(c2ccc(Cl)cc2)CCN(CCCCCc2cccc3c2CN(C2CCC(=O)NC2=O)C3=O)CC1` (centres unmarked) [Example 49, 4-(4-chlorophenyl)-1-(5-(2-(2,6-dioxopiperidine-3-)-1-oxoisoindoline-4-)pentyl) piperidine-4-carbonitrile], the IC50 was less than 100 nM. `C[C@]1(N2C(=O)c3cccc(OCCCN4CCC(C#N)(c5ccccc5Cl)CC4)c3C2=O)CCC(=O)NC1=O` [Example 50, (S)-4-(2-chlorophenyl)-1-(3-((2-(3-methyl-2,6-dioxopiperidine-3-)-1,3-dioxoisoindoline-4-)oxy)propyl)piperidine-4-carbonitrile] showed an IC50 of 1000 to 20000 nM. `C[C@]1(N2Cc3c(OCCCN4CCC(C#N)(c5cccc(Cl)c5)CC4)cccc3C2=O)CCC(=O)NC1=O` [Example 52, (S)-4-(3-chlorophenyl)-1-(3-((2-(3-methyl-2,6-dioxopiperidine-3-)-1-oxoisoindole-4-)oxy)propyl)piperidine-4-carbonitrile] gave an IC50 of 1000 to 20000 nM. `N#CC1(c2ccccc2)CCN(CCCOc2cccc3c2CN(C2CCC(=O)NC2=O)C3=O)CC1` (centres unmarked) [Example 53, 1-(3-((2-(2,6-dioxopiperidine-3-)-1-oxoisoindoline-4-)oxy)propyl)-4-phenylpiperidine-4-carboxonitrile] showed an IC50 of less than 100 nM. For `C[C@]1(N2C(=O)c3cccc(OCCCN4CCC(C#N)(c5cccc(Cl)c5)CC4)c3C2=O)CCC(=O)NC1=O` [Example 54, (S)-4-(3-chlorophenyl)-1-(3-((2-(3-methyl-2,6-dioxopiperidine-3-)-1,3-dioxoisoindoline-4-)oxy)propyl)piperidine-4-carbonitrile], the IC50 was 1000 to 20000 nM. Work on `N#CC1(c2ccccc2Cl)CCN(CCCOc2cccc3c2CN(C2CCC(=O)NC2=O)C3=O)CC1` (centres unmarked) [Example 55, 4-(2-chlorophenyl)-1-(3-((2-(2,6-dioxopiperidine-3-)-1-oxoisoindoline-4-)oxy)propyl)piperidine-4-carbonitrile] yielded an IC50 of less than 100 nM.
